Read-outs that look alike come from different tables or passages of the source.

In experiment [1] the test system is Hamster's ear sebaceous glands. As to the kind of experiment: Topical antiandrogenic activity, histomorphometry of the ear sebaceous glands in the hamster. As to conditions: Mesocricetus auratus, 336 h, once daily, 14 days, sebaceous gland area, read-out: Antiandrogenic activity in Hamster's sebaceous glands Inh. Vs Cx (%); for inhibition in vivo at 0.001 mg: dose 1 μg applied topically on left ear of intact male hamster; for inhibition in vivo at 0.003 mg: dose 3 μg applied topically on left ear of intact male hamster; for inhibition in vivo at 0.01 mg: dose 10 μg applied topically on left ear of intact male hamster. The format is in vivo, Male Golden Syrian hamster. The text has this:
Column 3 represents the dose of antiandrogenic compounds applied on the left ear of the intact male hamster.
Column 4 represents the relative inhibition in % of the area of the sebaceous gland of the left ear versus control hamster. Higher values approaching the effect of castration are preferable
The Antiandrogenic activity of antiandrogenic compounds has been measured using a Histomorphometry assay of the Ear Sebaceous Glands in the Hamster
1. Animals Male Golden Syrian, Hamster (SYR) of 110-120 g were obtained from Harlan Sprague Dawlay (Madison, USA) and housed up to 2 per cage in plastic cages in a temperature (22±3° C.) and light (12 h light/day, lights on at 7 h 15) in a controlled environment. The hamsters were fed with Certified Rodent Diet 5002 (pellet) and tap water ad libitum. The animals were acclimated for at least five days before the beginning of the study. Animals were randomly assigned to groups of eight hamsters. One group of hamsters was castrated under isoflurane-induced anesthesia on the day of dosing initiation (SD 1) and used as control group.
2. Treatments To evaluate the antiandrogenic activity, tested compounds were applied topically on the inner part of the left ear, once daily, for 14 days. Ten μL solution of acetone: ethanol: propylene Glycol (1:1:2; v:v:v) containing 0.1, 0.3 or 1.0 mg/mL of tested compound was carefully applied onto a region between the two cartilage ridges of the ventral surface of left pinna. For animals in the castrated and intact control groups ten-μL vehicle was applied onto the left ear. No solution will be applied on the right ear for any animals of the study.
3. Postmortem Observations and Measurements On Study Day 15, the hamsters were euthanized by cervical dislocation under isoflurane anesthesia. The left and right ears were collected attached together by the head skin, flat fixed on a paper and were immersed in 10% neutral buffered formalin. From the flat fixed ear and using paper puncture that makes a hole of 6 mm, the region where solution was applied was collected from each ear. Using a scalpel blade, the collected 6 mm round ear specimen was cut in the middle between the two cartilage ridges. The two equal parts of the ear round specimen were embedded in paraffin. After processing the tissue, the two parts were vertically embedded parallel to each other in a way that the flat 6 mm area was facing out. From each paraffin block, one section (5 μm thick) was cut and collected on a glass slide. Thus, each slide contained two elongated sections of 6 mm length. Slides were stained with hematoxylin and eosin.
4. Analysis of Sebaceous Gland Area Using the video camera and objective lens number X5 of the light microscope, the resulting field that appears on the screen has a length of 0.953 mm. From the glass slide, when we have examined the first 6 mm long section from the left to the right, the first and second fields were ignored and the third and fourth fields were captured for analysis by the image analyzer. Each field has the length of 0.953 mm. With the help of the screen mouse, the sebaceous glands within the whole field length (0.953mm) were marked. Also, an area with the length of the whole field and the height between stratum granulosum and the upper edge of the cartilage was drawn.
The image analyzer calculated the total area of the sebaceous glands (μm^2) in each examined field. We also obtained the area, which has the length of 0.953 mm and the height between stratum granulosum and the cartilage. In addition, the percentage of the area occupied by the glands was obtained. Thus, for each ear, two sections were cut and two fields from each section were analyzed. The total of the four readings was averaged and the mean standard of error calculated by the image analyzer. The results were expressed in μm^2 as the total surface of glands per field and also as percentage of the area occupied by the glands.

The test system of another experiment is rat prostate. Briefly: Systemic antiandrogenic activity in immature male rats (castrated, DHT implant), prostate weight. The note with it: po, 168 h, 0.5 mg/animal per os once daily 7 days, % efficacy relative to inhibition by flutamide, read-out: RAT (in vivo) (systemic) Prostate Inh. % inh. (0.5 mg, per os). On the procedure: Column 5 represents the % of antiandrogenic efficacy in rat prostate, relatively to the percentage of inhibition of flutamide calculated by the formula:
(§1) % efficacy versus Flu=100×% inhib (compound)/% inhib (Flu).
(§2) Where the percentage of inhibition (% inhib) is calculated by the following formula:
% lnhib=100−[W (compound)−W (control)/W (DHT)−W (control)]×100.
W is the weight of the prostate.
(§3) C Systemic antiandrogenic activity (immature male rats)
(§4) 1. Animals Immature male rats (Crl:CD(SD)Br) 22 to 24-day old were obtained from Charles-River, Inc. (St-Constant, Quebec, Canada) and housed up to 5 per cage in plastic bins in a temperature (23±1° C.)—and light (12 h light/day, lights on at 7h15)—controlled environment. The rats were fed rodent chow and tap water ad libitum. The day following their arrival, the animals were orchidectornized (CX) under Isoflurane anesthesia via scrotal route and randomly assigned to groups of 5 animals. One silastic implant of dihydrotestosterone (DHT; length of implant: 1 cm) was inserted subcutaneously in the dorsal area of animals at the time of orchidectomy. One group of 5 animals was CX only as control (no DHT implant inserted).
(§5) 2. Treatments To evaluate the antiandrogenic activity, tested compounds were administered orally by gavage once daily at a dose of 0.5 mg/animal for 7 days (SD 1 to 7). Compounds were solubilized (when possible) in dimethylsulfoxide (DMS, 10% final concentration) and administered as suspension in 0.4% methylcellulose. Rats in CX control and CX+DHT control groups received the vehicle alone during the 7-day period. One group of animals received the antiandrogen Flutamide as reference. The animals were killed by cervical dislocation under isoflurane anesthesia on the 8th morning following castration. The ventral prostate and seminal vesicles were rapidly dissected and weighed.
(§6) 3. Calculations and Statistical Analysis The percentage of inhibition (% inhib) is calculated by the following formula:
(§7) % Inhib=100−[W (compound)−W (control)/W (DHT)−W (control)]×100.
(§8) This percentage is reported as % of efficacy, relatively to the percentage of inhibition of flutaride calculated by the formula: % efficacy versus Flu=100×% inhib (compound)/% inhib (Flu).
(§9) W is the weight of the prostate or the seminal vesicle.

In experiment [2] the test system is Shionogi mouse mammary carcinoma cells. Briefly: In vitro androgenic/antiandrogenic activity, DHT-stimulated Shionogi cell number. The format is cell-based. The note with it: for Shionogis (In Vitro) VS OH-FLU (ratio of Ki of hydroxyflutamide versus tested compound): OH-Flu = 1, DHT-stimulated cell number, higher values preferable.
The subject of the next experiment is rat seminal vesicle. Briefly: Systemic antiandrogenic activity in immature male rats (castrated, DHT implant), seminal vesicle weight. As to conditions: po, 168 h, 0.5 mg/animal per os once daily 7 days, % efficacy relative to inhibition by flutamide, read-out: RAT (in vivo) (systemic) SV Inh % inh. (0.5 mg, per os). On the procedure: Column 6 represents the % of antiandrogenic efficacy on the rat seminal vesicle, relative to the percentage of inhibition by flutamide calculated by the formula:
as §1, §2, §7
W is the weight of the seminal vesicle.
as §3, §4, §5, §6, §8, §9

[3] abbreviates: Mus musculus, read-out: Shionogis (In Vitro) IC50(nM), inhibition of DHT-stimulated cell number, 10-12 days.

On to `CC1(C)CC2C3CCc4c(Cl)cccc4C3CC[C@]2(C)[C@H]1O` (stereo partly shown) [EM-3415], for which, in experiment [1], the inhibition in vivo at 0.001 mg was 0%, the inhibition in vivo at 0.003 mg amounted to 11.1% and the inhibition in vivo at 0.01 mg was 44.4%. For the same molecule, the inhibition in vivo at 0.5 mg with rat prostate is 0%. Further, the concentration for half-maximal inhibition (IC50) in experiment [2] (setting [3]) was 26 nM. In addition, in experiment [2], the “Shionogis (In Vitro) VS OH-FLU (ratio of Ki of hydroxyflutamide versus tested compound)” value is reported as 2.5. Further, the inhibition in vivo at 0.5 mg in the experiment on rat seminal vesicle turned out to be 0%.
On to `C[C@]12CCC3c4cccc(C#N)c4CCC3C1C[C@@H](C#CC1CC1)[C@@H]2O` (stereo partly shown) [EM-3473], for which, in experiment [1], the inhibition in vivo at 0.001 mg worked out at 7.4%, the inhibition in vivo at 0.003 mg came out at 0% and the inhibition in vivo at 0.01 mg worked out at 14.8%. In the experiment on rat prostate, the inhibition in vivo at 0.5 mg was 0%. Besides, in experiment [2] (setting [3]), the half-maximal inhibitory concentration (IC50) was 9.3 nM. In addition, the “Shionogis (In Vitro) VS OH-FLU (ratio of Ki of hydroxyflutamide versus tested compound)” value in experiment [2] was determined as 9. In the experiment on rat seminal vesicle, the inhibition in vivo at 0.5 mg stood at 0%.
As for `CC1(C)C[C@H]2[C@@H]3CCc4cc(F)ccc4[C@H]3CC[C@]2(C)[C@H]1O` [EM-3497, 3fluoro-16,16-dimethyl-1,3,5(10)-estratrien-17β-ol], in experiment [1], the inhibition in vivo at 0.001 mg was found to be 62.9%, the inhibition in vivo at 0.003 mg came to 62.9% and the inhibition in vivo at 0.01 mg stood at 77.7%. Further, the inhibition in vivo at 0.5 mg in the experiment with rat prostate is 0%. In addition, the IC50 in experiment [2] (setting [3]) was 46 nM. The “Shionogis (In Vitro) VS OH-FLU (ratio of Ki of hydroxyflutamide versus tested compound)” value in experiment [2] stood at 1.5. Besides, the inhibition in vivo at 0.5 mg in the experiment on rat seminal vesicle turned out to be 0%.
`C[C@@H]1CCC2C3CCc4c(C#N)cccc4C3CC[C@]2(C)[C@H]1O` (stereo partly shown) [EM-3803]: in experiment [1], the inhibition in vivo at 0.001 mg was 33.3%, the inhibition in vivo at 0.003 mg was found to be 51.8% and the inhibition in vivo at 0.01 mg is 37%. The inhibition in vivo at 0.5 mg in the experiment on rat prostate is 0%. Besides, the half-maximal inhibitory concentration (IC50) in experiment [2] (Mus musculus, inhibition of DHT-stimulated cell number, 10-12 days, read-out: Shionogis (In Vitro) IC50) came out at 11 nM. In addition, in experiment [2] (inhibition of DHT-stimulated cell number, 10-12 days, read-out: Shionogis (In Vitro) IC50), the half-maximal inhibitory concentration (IC50) was 8.6 nM. The inhibition in vivo at 0.5 mg with rat seminal vesicle came to 30%.
As for `CC[C@@H]1CC2C3CCc4c(C#N)cccc4C3CC[C@]2(C)[C@H]1O` (stereo partly shown) [EM-3852], in experiment [1], the inhibition in vivo at 0.003 mg was 66.6% and the inhibition in vivo at 0.01 mg worked out at 70.4%. Further, the inhibition in vivo at 0.5 mg with rat prostate worked out at 0%. Also, the IC50 in experiment [2] (setting [3]) stood at 16.1 nM. Further, the “Shionogis (In Vitro) VS OH-FLU (ratio of Ki of hydroxyflutamide versus tested compound)” value in experiment [2] amounted to 8.7. Also, in the experiment with rat seminal vesicle, the inhibition in vivo at 0.5 mg worked out at 0%.
On to `CC#Cc1ccc2c(c1C#N)CCC1C2CC[C@]2(C)C(=O)CCC12` (stereo partly shown) [EM-4142], for which, in experiment [1], the inhibition in vivo at 0.001 mg came to 18.5%, the inhibition in vivo at 0.003 mg worked out at 18.5% and the inhibition in vivo at 0.01 mg was 37%. Further, the inhibition in vivo at 0.5 mg in the experiment on rat prostate came out at 0%. Further, in experiment [2] (setting [3]), the 50% inhibitory concentration (IC50) stood at 29 nM. The “Shionogis (In Vitro) VS OH-FLU (ratio of Ki of hydroxyflutamide versus tested compound)” value in experiment [2] is given as 3.7. Also, the inhibition in vivo at 0.5 mg with rat seminal vesicle worked out at 22%.
`CC(C)[C@H]1CC2C3CCc4c(C#N)cccc4C3CC[C@]2(C)[C@H]1O` (stereo partly shown) [EM-4157]: in experiment [1], the inhibition in vivo at 0.001 mg was 18.5%, the inhibition in vivo at 0.003 mg stood at 29.6% and the inhibition in vivo at 0.01 mg was found to be 40.7%. Further, the inhibition in vivo at 0.5 mg with rat prostate was determined as 0%. In experiment [2] (setting [3]), the concentration for half-maximal inhibition (IC50) came to 33 nM. The “Shionogis (In Vitro) VS OH-FLU (ratio of Ki of hydroxyflutamide versus tested compound)” value in experiment [2] amounted to 5. Further, the inhibition in vivo at 0.5 mg in the experiment on rat seminal vesicle was 55%.
`C#Cc1ccc2c(c1)CCC1C2CC[C@@]2(C)C1C[C@@H](C)[C@@H]2O` (stereo partly shown) [EM-5035]: in experiment [1], the inhibition in vivo at 0.001 mg is 3.7%, the inhibition in vivo at 0.003 mg was 11.1% and the inhibition in vivo at 0.01 mg is 51.9%. In addition, in the experiment with rat prostate, the inhibition in vivo at 0.5 mg was determined as 11%. The 50% inhibitory concentration (IC50) in experiment [2] (setting [3]) worked out at 66 nM. In experiment [2], the “Shionogis (In Vitro) VS OH-FLU (ratio of Ki of hydroxyflutamide versus tested compound)” value came out at 1.6. The inhibition in vivo at 0.5 mg with rat seminal vesicle was found to be 4%.

One may read the IC50 as the midpoint of a concentration-inhibition curve.

These data come from patent publication US20040224935A1, “Topical antiandrogenic steroids” (Endorecherche, Inc., priority 2003, published 2004).
